Patent US20190151283A1, “NON-STEROIDAL SELECTIVE GLUCOCORTICOID RECEPTOR AGONISTIC MODULATORS (SEGRAMs) AND USES THEREOF” (ASSOCIATION POUR LA RECHERCHE À L'IGBMC (ARI), priority 2017, published 2019)

Legend:
Format in all cases: in vivo, mouse
[1] = tested on: Balb/C mice; test: Dextran sodium sulfate (DSS)-induced ulcerative colitis
Procedure: To investigate the anti-inflammatory activity of CpdX and CpdX-D3 on a Th17 ulcerative colitis, Balb/C mice were treated with 3% DSS in drinking water for 13 days, with or without an intraperitoneal administration of either Dex, CpdX, CpdX(eA), CpdX(eB), CpdX-D3, CpdX-D3(eA) or CpdX-D3(eB) (1 mg/kg of body weight) on D11, D12 and D13.
At D14, RNA transcripts were extracted from mouse colons. IL-1β, IL-6, IL-17a, IL-17f, TSLP and MMP13 transcripts were analyzed by q-RT-PCR. Colon samples were also harvested for histological analyses (with H&E staining).

[2] = tested on: mice; test: House dust mite (HDM)-induced asthma-like allergic lung inflammation
Procedure: Glucocorticoids have been (Pearlman et al., 1997. Ann Allergy Asthma Immunol. 78(4):356-62), and are still, widely used in asthma therapy. In order to investigate the possible CpdX anti-inflammatory activity in vivo, mice were sensitized and challenged with either ovalbumin (OVA) or house dust mite (HDM) to induce an asthma-like allergic lung inflammation.
Mice were intranasally sensitized with 1 μg HDM from DO to D4, and further intranasally sensitized with 10 μg HDM on D14 and D21. Mice were then subdivided into eight groups, and on D29, D30 and D31, each mouse was again intranasally challenged with 1 μg HDM. The first seven groups received respectively 0.5 mg/kg of body weight of Dex, CpdX, CpdX(eA), CpdX(eB), CpdX-D3, CpdX-D3(eA) or CpdX-D3(eB), while the eighth group served as a control.
On D32, the airway responsiveness was invasively determined using a computer-controlled small animal ventilator (FlexVent® system, SCIREQ Technologies). Mice were anesthetized with xylazine (15 mg/kg, i.p.), followed 15 minutes later by an i.p. injection of pentobarbital sodium (54 mg/kg). An 18-gauge metal needle was then inserted into the trachea, each mouse was connected to the FlexVent® ventilator and quasi-sinusoidally ventilated with a tidal volume of 10 mL/kg at a frequency of 150 breaths/minute and a positive end-expiratory pressure of 2 cm H2O, in order to achieve a mean lung volume close to spontaneous breathing. After baseline measurement, mice were challenged for 10 seconds with a saline aerosol and, at 4.5-minute intervals, with 50 mg/mL methacholine. Airway resistance and elastance were expressed as cmH20·s/mL and cmH2O/mL respectively.
The lung allergic inflammation was assessed by examination of the bronchoalveolar lavage (BAL) fluid from each of these HDM-challenged mice. The total BAL cells, eosinophils, neutrophils, macrophages and lymphocytes were counted. RNA transcripts were extracted from lung samples. RNA transcripts of IL-1β, IL-6, IL-4, IL-5, IL-13, Eotaxin, CCL4, IL-10 and TNFα were analyzed by q-RT-PCR. Lung tissues were harvested and histological (with H&E staining) and immunohistochemical analyses were also carried out (with eosinophil-specific and neutrophil-specific antibodies).

[3] = tested on: B6 male mice; test: Corticosterone synthesis and adrenal gland after three-month treatment
Procedure: B6 male mice (8-week-old) were daily subjected for three months to either a subcutaneous injection of vehicle (NaCl 0.9%), Dex, CpdX, CpdX(eA), CpdX(eB), CpdX-D3, CpdX-D3(eA) or CpdX-D3(eB) (1 mg/kg body weight, diluted in vehicle).
Following this long-term treatment, blood was collected at 10 a.m. and 6 p.m. by retro-orbital puncture in lithium-heparin coated vials, and the plasmatic level of corticosterone was determined. Adrenal glands were harvested and weighted. RNA transcripts were extracted and transcripts of the Cyp11a, Cyp11b1, Cyp11b2 and HSD3β genes were analyzed by q-RT-PCR. Histological analyses of the adrenal glands were also carried out.

[4] = tested on: Balb/C mice; test: Skin atrophy after 8-day topical treatment of dorsal skin
Source text: To investigate whether, similarly to Dex, a topical administration of CpdX could result in a skin atrophy, Balb/C mice were shaved on the dorsal skin. Ethanol (vehicle), Dex, CpdX or either one of its two enantiomers CpdX(eA) or CpdX(eB), as well as the deuterated form CpdX-D3 or either one of its two enantiomers CpdX-D3(eA) or CpdX-D3(eB), were topically applied onto the dorsal skin for 8 days.
Upon completion of the treatments, RNA transcripts were extracted from dorsal skin samples and the transcripts of Kindlin-1 and REDD1 genes were analyzed by q-RT-PCR. Histological and morphometric analyses of the dorsal skin were also performed.

[5] = tested on: Balb/C mice; test: Ovalbumin (OVA)-induced allergic conjunctivitis; settings: 0.1% instillation D22 to D24, 20 minutes after the last OVA challenge
Procedure: To investigate the anti-inflammatory effect of CpdX or CpdX-D3 on an allergic conjunctivitis, Balb/C mice were intraperitoneally sensitized with 50 μg OVA with alum on both days D1 and D8, and then challenged from D15 to D21 with 250 μg OVA in 5 μL of sterilized vehicle (0.9% NaCl), which were directly instilled onto the conjunctival sac. From D22 to D24, mice were divided into several groups, and received instillations with either OVA alone, OVA together with 0.1% of either Dex, CpdX, CpdX(eA), CpdX(eB), CpdX-D3, CpdX-D3(eA) or CpdX-D3(eB).
The clinical appearance of mouse eyes was evaluated 20 minutes after the last instillation on D24. Clinical signs (conjunctival hyperemia, lid edema and tearing) were scored to evaluate the occurrence and severity of conjunctivitis as described by Gimenes et al. (2015. Experimental Eye Research 134:24-32). Parameters were graded on a scale ranging from 0 to 3, (0=absence, 1=mild, 2=moderate, and 3=severe symptoms), each animal receiving a total clinical score ranging from 0 to 9. The data were expressed as mean±SEM with at least four mice per treatment.

[6] = i.p. 1 mg/kg on D11, D12, D13, H&E histology

COc1ccc(F)cc1C(C)(C)CC(O)(CNc1ccc2c(c1)COC2=O)C(F)(F)F (racemic) [CpdX, 5-[4-(5-fluoro-2-methoxyphenyl)-2-hydroxy-4-methyl-2-(trifluoromethyl)pentylamino]-isobenzofuran-1(3H)-one]
pro-inflammatory genes overexpressed in DSS-induced ulcerative colitis (IL-1β, IL-6, IL-17a, IL-17f, TSLP, MMP13) ([1]; colon, q-RT-PCR, D14): similarly repressed
colonic villus/crypt structure [1, 6]: almost reestablished
mucosal and submucosal cell infiltration [1, 6]: significantly decreased
number of neutrophils and macrophages in BAL ([2]; 0.5 mg/kg on D29-D31, BAL on D32): No significant change
total number of BAL cells, eosinophils and lymphocytes ([2]; 0.5 mg/kg on D29-D31, BAL on D32, vs control group): significantly decreased
eosinophils in lung, immunohistochemistry ([2]; eosinophil-specific antibodies, data not shown): decreased
peribronchiolar and perivascular inflammatory cell infiltration ([2]; histology of lung paraffin sections): strongly decreased
neutrophils in lung, immunohistochemistry ([2]; neutrophil-specific antibody, data not shown): no significant change
expressions of IL-1β, IL-6, IL-4, IL-5, IL-13, Eotaxin and CCL4 (pro-inflammatory genes) in lung samples ([2]; q-RT-PCR, D32): significantly and similarly decreased
expressions of IL-10 and TNFα in lung samples ([2]; q-RT-PCR, data not shown): not affected
HDM-induced airway hyperresponsiveness (AHR), airway resistance and elastance ([2]; response to methacholine 50 mg/mL, D32): similarly reduced
plasmatic corticosterone level ([3]; at 10 a.m., compared to control mice (Vehicle)): much higher
cortex layers, most notably the fasciculata zone, of the adrenal glands ([3]; three months, histology): markedly increased
glomerulosa zone of the adrenal cortex ([3]; three months, histology, 'but not' = not decreased): but not
transcripts of Cyp11a, Cyp11b1 and HSD3β genes in adrenal glands ([3]; three months, q-RT-PCR): increased
epidermal thickness ([4]; eight-day topical treatment, morphometric analysis): not significantly decreased
skin atrophy, histological analysis ([4]; eight-day topical treatment, 'in marked contrast' = no severe atrophy as with Dex): in marked contrast
transcription of the REDD1 gene in dorsal skin ([4]; topical 8 days, 1 nmole/cm^2, 'but not' = not increased): but not
clinical signs of allergic conjunctivitis (conjunctival hyperemia, lid edema and tearing) [5]: considerably reduced
